Measured values: the supplement of paper PMC10307832

Tests used:
Assay in all cases: relative viability (nuclei count vs DMSO), 5 days (fraction); higher = more cells survive
Bortezomib + Crizotinib = compound: CC(C)C[C@H](NC(=O)[C@H](Cc1ccccc1)NC(=O)c1cnccn1)B(O)O [Bortezomib] + C[C@@H](Oc1cc(-c2cnn(C3CCNCC3)c2)cnc1N)c1c(Cl)ccc(F)c1Cl [Crizotinib] (partner 1 µM)
Procedure, shortened: (§1)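 Lung cancer cell lines were pin-tool dosed in 1536-well plates on the day after seeding, with either a lone drug or a fixed anchor-drug dose plus five library-drug doses (not always all listed) in √10 steps. Nuclei were counted on 4× images after 5 days. Relative viability is the ratio of treated-well to vehicle-well nuclei counts, with each value a median of duplicate plates.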

[1] = compound: CC1=CC(=NN1)NC2=CC(=NC(=N2)/C=C/C3=CC=CC=C3)N4CCN(CC4)C + Nc1ncn([C@H]2C[C@H](O)[C@@H](CO)O2)c(=O)n1 [Decitabine] (partner 2 µM)
Procedure, shortened: as §1

Obatoclax + Bortezomib = compound: COC1=CC(c2cc3ccccc3[nH]2)=N/C1=C\c1[nH]c(C)cc1C [Obatoclax] + CC(C)C[C@H](NC(=O)[C@H](Cc1ccccc1)NC(=O)c1cnccn1)B(O)O [Bortezomib] (partner 0.002 µM)
Procedure, shortened: as §1

Obatoclax + Tozasertib = compound: COC1=CC(c2cc3ccccc3[nH]2)=N/C1=C\c1[nH]c(C)cc1C [Obatoclax] + Cc1cc(Nc2cc(N3CCN(C)CC3)nc(Sc3ccc(NC(=O)C4CC4)cc3)n2)n[nH]1 [Tozasertib] (partner 0.1 µM)
Procedure, shortened: as §1

Cell Line | relative viability (Bortezomib + Crizotinib; first compound 0.0002 µM) | relative viability (Bortezomib + Crizotinib; first compound 0.000632 µM) | relative viability (Bortezomib + Crizotinib; first compound 0.002 µM) | relative viability (Bortezomib + Crizotinib; first compound 0.006325 µM) | relative viability (Bortezomib + Crizotinib; first compound 0.02 µM) | relative viability ([1]; first compound 0.08 µM) | relative viability ([1]; first compound 0.253 µM) | relative viability ([1]; first compound 0.8 µM) | relative viability ([1]; first compound 2.53 µM) | relative viability ([1]; first compound 8 µM) | relative viability (Obatoclax + Bortezomib; first compound 0.01 µM) | relative viability (Obatoclax + Bortezomib; first compound 0.03162 µM) | relative viability (Obatoclax + Bortezomib; first compound 0.1 µM) | relative viability (Obatoclax + Bortezomib; first compound 0.3162 µM) | relative viability (Obatoclax + Bortezomib; first compound 1 µM) | relative viability (Obatoclax + Tozasertib; first compound 0.01 µM) | relative viability (Obatoclax + Tozasertib; first compound 0.03162 µM) | relative viability (Obatoclax + Tozasertib; first compound 0.1 µM) | relative viability (Obatoclax + Tozasertib; first compound 0.3162 µM) | relative viability (Obatoclax + Tozasertib; first compound 1 µM)
NCI-H727 | 0.774 | 0.864 | 0.91 | 0.155 | 0.0951 | 0.515 | 0.699 | 0.882 | 0.793 | 0.412 | 0.892 | 0.827 | 1.17 | 0.847 | 0.335 | 0.581 | 0.58 | 0.755 | 0.509 | 0.707
NCI-H838 | 0.822 | 0.811 | 0.916 | 0.348 | 0.123 | 0.487 | 0.416 | 0.384 | 0.208 | 0.141 | 1.01 | 0.748 | 0.495 | 0.754 | 0.404 | 0.292 | 0.253 | 0.292 | 0.25 | 0.221
H3255 | 0.734 | 0.914 | 0.452 | 0.195 | 0.208 | 0.52 | 0.54 | 0.496 | 0.499 | 0.249 | 0.764 | 0.784 | 0.725 | 0.762 | 0.793 | 0.6 | 0.796 | 0.513 | 0.638 | 0.73
EPLC-272H | – | – | 0.972 | 0.584 | 0.07 | 0.345 | 0.373 | 0.36 | 0.245 | 0.163 | 0.833 | 0.88 | 1.05 | 0.864 | 0.894 | 0.255 | 0.229 | 0.343 | 0.326 | 0.545
NCI-H647 | 0.993 | 0.954 | 0.627 | 0.0302 | 0.0195 | 0.32 | 0.429 | 0.36 | 0.121 | 0.122 | 0.902 | 0.853 | 0.541 | 0.351 | 0.143 | 0.254 | 0.304 | 0.301 | 0.222 | 0.112
LXF-289 | 0.809 | 0.795 | 0.896 | 0.0729 | 0.0698 | 0.371 | 0.383 | 0.324 | 0.288 | 0.248 | 1.01 | 1.01 | 0.999 | 0.958 | 0.847 | 0.192 | 0.216 | 0.215 | 0.168 | 0.131
NCI-H1650 | 0.973 | 0.93 | 0.158 | 0.124 | 0.147 | 0.333 | 0.454 | 0.389 | 0.297 | 0.113 | 0.208 | 0.198 | 0.196 | 0.19 | 0.197 | 0.417 | 0.358 | 0.425 | 0.275 | 0.266
NCI-H1755 | 0.866 | 0.828 | 0.877 | 0.196 | 0.156 | 0.707 | 0.65 | 0.733 | 0.663 | 0.428 | 0.926 | 0.937 | 0.805 | 0.949 | 0.967 | 0.542 | 0.537 | 0.574 | 0.574 | 0.515
HCC-15 | 0.784 | 0.825 | 0.904 | 0.46 | 0.0815 | 0.592 | 0.654 | 0.655 | 0.108 | 0.0983 | 0.973 | 1.02 | 0.926 | 0.957 | 0.739 | 0.371 | 0.35 | 0.463 | 0.456 | 0.287
EMC-BAC-2 | 0.71 | 0.692 | 0.766 | 0.199 | 0.113 | 0.989 | 0.91 | 0.946 | 0.689 | 0.282 | 1.15 | 1.04 | 1.03 | 1.1 | 1.16 | 0.279 | 0.294 | 0.25 | 0.289 | 0.263
NCI-H1734 | 0.737 | 0.71 | 0.491 | 0.106 | 0.0952 | 0.515 | 0.531 | 0.544 | 0.362 | 0.16 | 0.928 | 0.818 | – | 0.914 | 0.836 | 0.296 | 0.264 | 0.265 | 0.236 | 0.226
HOP-62 | – | 1.01 | 0.35 | 0.235 | 0.048 | 0.203 | 0.191 | 0.212 | 0.197 | 0.166 | 0.909 | 0.787 | 0.639 | 0.739 | 0.719 | 0.357 | 0.343 | 0.353 | 0.393 | 0.299
SW 1573 | 0.851 | 0.82 | 0.631 | 0.181 | 0.0539 | 0.51 | 0.652 | 0.451 | 0.111 | 0.0605 | 1.04 | 0.998 | 0.925 | 0.895 | 0.476 | 0.222 | 0.208 | 0.145 | 0.143 | 0.129
SK-LU-1 | 0.793 | 0.912 | 0.626 | 0.173 | 0.136 | 0.594 | 0.661 | 0.618 | 0.396 | 0.183 | 1.15 | 1.05 | 0.44 | 1.05 | 0.75 | 0.346 | 0.354 | 0.342 | 0.184 | 0.154
NCI-H23 | – | 0.491 | 0.417 | 0.128 | 0.0919 | 0.302 | 0.326 | 0.29 | 0.177 | 0.141 | 1.03 | 0.873 | 1.13 | 0.804 | 0.762 | 0.378 | 0.484 | 0.454 | 0.301 | 0.241
NCI-H1355 | 1.02 | 1.06 | 0.788 | 0.275 | 0.139 | 0.305 | 0.346 | 0.351 | 0.356 | 0.201 | 1.23 | 1.11 | 1.09 | 1.06 | 1.21 | 0.602 | 0.588 | 0.623 | 0.538 | 0.466
